Laboratory results published in patent publication US7208506B2, “Heteroarylethenyl derivatives, their manufacture and use as pharmaceutical agents” (Hoffmann-La Roche Inc., priority 2005, dated 2007).
Counter-ions that a name gives are not always drawn.

System: HCT 116 cells
Assay: CellTiter-Glo Luminescent Cell Viability Assay in HCT 116 cells
Format: cell-based
Details: Homo sapiens, HCT-116, 120 h, HCT 116 human colon carcinoma cell viability, 120 h (5 days) incubation, 10 concentrations 30 μM to 0.0015 μM, triplicate
Excerpt: CellTiter-Glo™ Assay in HCT 116 Cells
The CellTiter-Glo™ Luminescent Cell Viability Assay (Promega) is a homogeneous method of determining the number of viable cells in culture based on quantitation of the ATP present, which signals the presence of metabolically active cells.
HCT 116 cells (human colon carcinoma, ATCC-No. CCl1-247) were cultivated in RPMI 1640 medium with GlutaMAX™ I (Invitrogen, Cat-No. 61870-010), 2.5% Fetal Calf Serum (FCS, Sigma Cat-No. F4135 (FBS)); 100 Units/ml penicillin/100 μg/ml streptomycin (=Pen/Strep from Invitrogen Cat. No. 15140). For the assay the cells were seeded in 384 well plates, 1000 cells per well, in the same medium. The next day the test compounds were added in various concentrations ranging from 30 μM to 0.0015 μM (10 concentrations, 1:3 diluted). After 5 days the CellTiter-Glo™ assay was done according to the instructions of the manufacturer (CellTiter-Glo™ Luminescent Cell Viability Assay, from Promega). In brief: the cell-plate was equilibrated to room temperature for approximately 30 minutes and than the CellTiter-Glo™ reagent was added. The contents were carefully mixed for 15 minutes to induce cell lysis. After 45 minutes the luminescent signal was measured in Victor 2, (scanning multiwell spectrophotometer, Wallac).
Medium: RPMI 1640 with GlutaMAX™ I (Invitrogen, Cat-Nr. 61870), 5% FCS (Sigma Cat.-No. F4135), Pen/Strep (Invitrogen, Cat No. 15140).
HCT116 (ATCC-No. CCl-247): 1000 cells in 60 μl per well of 384 well plate (Greiner 781098, μClear-plate white)
After seeding incubate plates 24 h at 37° C., 5% CO2
2nd. Day: Induction (Treatment with Compounds, 10 Concentrations):
In order to achieve a final concentration of 30 μM as highest concentration 3,5 μl of 10 mM compound stock solution were added directly to 163 μl media. Then step e) of the dilution procedure described below, was followed.
In order to achieve the second highest to the lowest concentrations, a serial dilution with dilution steps of 1:3 was followed according to the procedure (a–e) as described here below: • a) for the second highest concentration add 10 μl of 10 mM stock solution of compound to 20 μl dimethylsulfoxide (DMSO) • b) dilute 8×1:3 (always 10 μl to 20 μl DMSO) in this DMSO dilution row (results in 9 wells with concentrations from 3333.3 μM to 0.51 μM) • c) dilute each concentration 1: 47.6 (3.5 μl compound dilution to 163 μl media) • e) add 10 μl of every concentration to 60 μl media in the cell plate resulting in final concentration of DMSO : 0.3% in every well and resulting in 10 final concentration of compounds ranging from 30 μM to 0.0015 μM. • Each compound is tested in triplicate. • Incubate 120 h (5 days) at 37° C., 5% CO2
Analysis: • Add 30 μl CellTiter-Glo™ Reagent per well, • shake 15 minutes at room temperature • incubate further 45 minutes at room temperature without shaking
Measurement: • Victor 2 scanning multiwell spectrophotometer (Wallac), Luminescence mode (0.5 sec/read, 477 nm) • Determine IC50 using a non-linear curve fit (XLfit software (ID Business Solution Ltd., Guilford, Surrey, UK))

Structure (SMILES)	IC50
Cc1ccc(C(=O)NS(=O)(=O)/C=C/c2cccs2)c(C)c1 [Example 3-13, (E)-2-Thiophen-2-yl-ethenesulfonic acid 2,4-dimethyl-benzoylamide; sodium salt]	0.5 to 15 µM
Cc1ccc(C(=O)NS(=O)(=O)/C=C/c2ccsc2)c(C)c1 [Example 3-14, (E)-2-Thiophen-3-yl-ethenesulfonic acid 2,4-dimethyl-benzoylamide; sodium salt]	0.5 to 15 µM
COc1cc(Cl)ccc1C(=O)NS(=O)(=O)/C=C/c1cccnc1 [Example 4-1, (E)-2-Pyridin-3-yl-ethenesulfonic acid 4-chloro-2-methoxy-benzoylamide; sodium salt]	0.5 to 15 µM
Cc1cc(Br)ccc1C(=O)NS(=O)(=O)/C=C/c1ccccn1 [Example 4-4, (E)-2-Pyridin-2-yl-ethenesulfonic acid 4-bromo-2-methyl-benzoylamide; sodium salt]	0.5 to 15 µM
O=C(NS(=O)(=O)/C=C/c1ccccn1)c1ccc(F)cc1Br [Example 4-6, (E)-2-Pyridin-2-yl-ethenesulfonic acid 2-bromo-4-fluoro-benzoylamide; sodium salt]	0.5 to 15 µM
O=C(NS(=O)(=O)/C=C/c1ccccn1)c1ccc(Br)cc1Cl [Example 4-7, (E)-2-Pyridin-2-yl-ethenesulfonic acid 4-bromo-2-chloro-benzoylamide; sodium salt]	0.5 to 15 µM
Cc1cccc(/C=C/S(=O)(=O)NC(=O)c2ccc(F)cc2Br)n1 [Example 4-15, (E)-2-(6-Methyl-pyridin-2-yl)-ethenesulfonic acid 2-bromo-4-fluoro-benzoylamide; sodium salt]	0.5 to 15 µM
Cc1ccc(C(=O)NS(=O)(=O)/C=C/c2cccnc2)c(C)c1 [Example 4-16, (E)-2-Pyridin-3-yl-ethenesulfonic acid 2,4-dimethyl-benzoylamide; sodium salt]	0.5 to 15 µM
Cc1cc(Cl)ccc1C(=O)NS(=O)(=O)/C=C/c1csc2ccccc12 [Example 4-18, (E)-2-Benzo[b]thiophen-3-yl-ethenesulfonic acid 4-chloro-2-methyl-benzoylamide; sodium salt]	0.5 to 15 µM
Cc1cc(F)ccc1C(=O)NS(=O)(=O)/C=C/c1cccs1 [Example 5-1, (E)-2-Thiophen-2-yl-ethenesulfonic acid 4-fluoro-2-methyl-benzoylamide]	0.5 to 15 µM

Second part, the compound after the results:

IC50	Structure (SMILES)
0.5 to 15 µM	Cc1cc(Cl)ccc1C(=O)NS(=O)(=O)/C=C/c1ccccn1 [Example 4-2, (E)-2-Pyridin-2-yl-ethenesulfonic acid 4-chloro-2-methyl-benzoylamide; sodium salt]
0.5 to 15 µM	Cc1cc(Cl)ccc1C(=O)NS(=O)(=O)/C=C/c1cccnc1 [Example 4-8, (E)-2-Pyridin-3-yl-ethenesulfonic acid 4-chloro-2-methyl-benzoylamide; sodium salt]
0.5 to 15 µM	O=C(NS(=O)(=O)/C=C/c1cccnc1)c1ccc(Br)cc1Cl [Example 4-11, (E)-2-Pyridin-3-yl-ethenesulfonic acid 4-bromo-2-chloro-benzoylamide; sodium salt]
0.5 to 15 µM	COc1ccc(/C=C/S(=O)(=O)NC(=O)c2ccc(Cl)cc2C)cn1 [Example 4-12, (E)-2-(6-Methoxy-pyridin-3-yl)-ethenesulfonic acid 4-chloro-2-methyl-benzoylamide; sodium salt]
0.5 to 15 µM	Cc1ccc(C(=O)NS(=O)(=O)/C=C/c2ccncc2)c(C)c1 [Example 4-17, (E)-2-Pyridin-4-yl-ethenesulfonic acid 2,4-dimethyl-benzoylamide; sodium salt]
0.5 to 15 µM	O=C(NS(=O)(=O)/C=C/c1csc2ccccc12)c1ccc(F)cc1Br [Example 4-19, (E)-2-Benzo[b]thiophen-3-yl-ethenesulfonic acid 2-bromo-4-fluoro-benzoylamide; sodium salt]
